Laboratory results reported in patent US4774242A, “Tetrahydrobenz(c,d)indoles and pharmaceutical use” (Roussel Uclaf, priority 1986, dated 1988).

How the values were obtained:
dopaminergic receptors = molecular target: T1, dopaminergic receptors (Rattus norvegicus, UniProt P61169); experiment: Affinities for the dopaminergic receptors (displacement of spiroperidol 3H, rat striated bodies); type: binding; details: rat striatum, relative to haloperidol = 100, from concentrations inhibiting 50% of specific fixation
T1 construct: Striated bodies removed from the brains of 6 male rats; from tissue; host or cells: rat striatum (striated bodies), membrane fraction
Procedure: Striated bodies removed from the brains of 6 male rats weighing an average of 150 g were homogenized at one-twentieth (weight/volume) in 0.32M sucrose. After centrifuging the homogenized mixture at 1000 g for 10 minutes at 0° C., the supernatant was centrifuged at 30,000 g for 15 minutes at +4° C. The residue was taken up in 25 ml of Tris HCl 50 mM pH 7.7 buffer and centrifuged at 30,000 g for 15 minutes at +4° C. The new residue was taken up in 50 ml of Krebs Tris HCl pH 7.3 buffer and the suspension was pre-incubated for 10 minutes at 37° C. Then it was incubated for 29 minutes on a water-bath at +37° C. in the presence of spiroperidol ^3 H alone, with an excess of haloperidol, and with increasing concentrations of the test product. The incubated suspensions were filtered on Whatman GF/C and the filters were washed three times with 5 ml of Tris HCl 50 mM buffer. The radioactivity of the filters is measured by liquid scintillation. The non-specific fixation was determined in parallel by incubation of spiroperidol ^3 H in the presence of an excess of haloperidol. The affinity of the product tested for the dopaminergic receptors is given relative to haloperidol as reference product,
CD=concentration of cold haloperidol inhibiting 50% of the specific fixation of the spiroperidol ^3 H,
CX=concentration of the product under test inhibiting 50% of the specific fixation of the piroperidol ^3 H.
The relative affinity was determined by the relation: [formula]

[1] = Study of the acute toxicity (LD0); type: in vivo; details: oral, mice, maximal dose not causing any mortality over 8 days
Procedure: The lethal doses LD0 of the different compounds tested was evaluated after oral administration in mice and the maximal dose not causing any mortality over 8 days was called the LD0.

arterial pressure = experiment: Determination of hypotensive activity (carotid arterial pressure, anesthetized rats); type: in vivo, male rats of WISTAR strain; details: 0.01 mg/kg intravenous, anesthetized male Wistar rats
Procedure: The hypotensive activity was studied in male rats of WISTAR strain weighing about 300 g and anesthetized with nembutal (50 mg/kg by intraperitoneal route). The test product was administered intravenously in the jugular vein. The arterial pressure in the carotid was measured before and after administration of the test product. The following table indicates the variations expressed in percentage of the arterial pressure after administration of the product under test relative to the initial control arterial pressure.

enolase γγ = experiment: Antianoxic activity: enolase test (kainic acid lesions); type: in vivo; details: intraperitoneal, upwards of a dose of 1 mg/kg, 1 hour after kainic acid, mice
Procedure: Suffering cerebral cells release enolase γγ which is a specific indicator of neuronal lesions. In the test, the lesions were carried out in mice by subcutaneous injection of 35/mg/kg of kainic acid.

T1 sequence (P61169 whole entry): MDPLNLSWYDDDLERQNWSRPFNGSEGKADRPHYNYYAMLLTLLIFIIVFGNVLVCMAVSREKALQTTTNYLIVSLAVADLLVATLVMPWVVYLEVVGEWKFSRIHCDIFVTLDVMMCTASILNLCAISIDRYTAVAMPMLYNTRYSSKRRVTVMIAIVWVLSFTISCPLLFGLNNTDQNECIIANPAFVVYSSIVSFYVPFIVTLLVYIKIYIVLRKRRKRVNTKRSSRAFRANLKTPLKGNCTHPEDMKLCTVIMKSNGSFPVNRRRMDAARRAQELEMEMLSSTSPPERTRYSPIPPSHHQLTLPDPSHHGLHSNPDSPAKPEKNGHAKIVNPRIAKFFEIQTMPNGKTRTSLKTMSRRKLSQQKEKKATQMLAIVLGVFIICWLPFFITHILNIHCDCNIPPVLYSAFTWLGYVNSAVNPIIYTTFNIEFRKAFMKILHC

Structure (SMILES) | Relative affinity (Haloperidol = 100) (dopaminergic receptors) | LD0 [1] [mg/kg] | % Variations of the arterial pressure 5 minutes after administration (arterial pressure) [%] | seral concentration of enolase (enolase γγ)
c1cc2c3c(c[nH]c3c1)[C@H]1OCCN[C@@H]1C2 (relative stereo) [Example 2, (dl-trans) 2,6,6a,7,8,9,10a-hexahydro-6H-indol-[4,3-g,h]-1,4-benzoxazine] | 0.09 | > 200 | – | –
CCCN1CCO[C@@H]2c3c[nH]c4cccc(c34)C[C@H]21 (relative stereo) [Example 3, (dl-trans) 2,6a,7,8,9,10a-hexahydro-7-propyl-6H-indol-[4,3-g,h]-1,4-benzoxazine] | 13 | 100 | < -40 | reduced the seral concentration of enolase
CN1CCO[C@@H]2c3c[nH]c4cccc(c34)C[C@H]21 (relative stereo) [Example 4, (d,l trans) 2,6a,7,8,9,10a-hexahydro-7-methyl 6H-indol-[4,3-g,h]-1,4-benzoxazine] | 0.4 | – | – | –
